Among the data in patent US9814739B2, “2′-ethynyl nucleoside derivatives for treatment of viral infections” (priority 2012, dated 2017) are EC50 and CC50 values, retold here.

Data set [1] has as its system GT1b HCV luciferase replicon. In words: HCV replicon antiviral EC50 assay. In kind it is cell-based, Hepatitis C virus. The following applies: for pEC50: read-out: HCV GT1b EC50; for EC50: GT1B, read-out: HCV GT1b EC50 (uM). Background: Replicon systems follow genome replication, usually without infectious particles.
Data set [2] has as its system Replicon cells, expressing the GT1b HCV luciferase replicon.
A further data set in a line: in vitro. The conditions noted are these: for CC50: HCV GT1b CC50 (uM).

pEC50: −log10 of the molar value. Where two headings read alike, the source gives them in different places.

Usually pEC50 stands for the negative decadic logarithm of the EC50, by convention in mol/L. Turning to `C#C[C@@]1(O)[C@H](O)[C@@H](COP(=O)(N[C@@H](C)C(=O)OC)Oc2ccccc2)O[C@H]1n1ccc(=O)[nH]c1=O` (single isomer, unassigned) [1.35 (peak 1)], the pEC50 in data set [1] was 6.53. In data set [2], this compound gave a CC50 of over 25000 nM.
For `C#C[C@@]1(O)[C@H](O)[C@@H](COP(=O)(N[C@@H](C)C(=O)OC2CCCC2)Oc2ccccc2)O[C@H]1n1ccc(=O)[nH]c1=O` (single isomer, unassigned) [1.31 (peak 1)], in that order: 7.62 and over 25000 nM.
The EC50 is the concentration needed to bring the measured effect to its halfway point. On to `C#C[C@@]1(O)[C@H](OC(C)=O)[C@@H](COP(=O)(N[C@@H](C)C(=O)OC(C)C)Oc2ccccc2)O[C@H]1n1ccc(=O)[nH]c1=O` (stereo partly drawn) [Example 1.21, (2S)-isopropyl 2-(((((2R,3R,4R,5R)-3-acetoxy-5-(2,4-dioxo-3,4-dihydropyrimidin-1(2H)-yl)-4-ethynyl-4-hydroxytetrahydrofuran-2-yl)methoxy)(phenoxy)phosphoryl)amino)propanoate], for which the EC50 in data set [1] (Hepatitis C virus, 72 h) was determined as 0.067 µM. Moreover, the CC50 in “in vitro” was over 25 µM.
`C#C[C@@]1(O)[C@H](O)[C@@H](COP(=O)(N[C@@H](C)C(=O)OC(C)C)Oc2ccccc2)O[C@H]1n1ccc(OC)nc1=O` (single isomer, unassigned) [1.28 (peak 2)]: in data set [1] (Hepatitis C virus, 72 h), the half-maximal effective concentration (EC50) is over 100 µM. Moreover, in “in vitro”, the CC50 was over 25 µM.
In the case of `C#C[C@@]1(O)[C@H](O)[C@@H](COP(=O)(N[C@@H](C)C(=O)OC(CCC)CCC)Oc2ccccc2)O[C@H]1n1ccc(=O)[nH]c1=O` (single isomer, unassigned) [1.34 (peak 2)], the EC50 in data set [1] (Hepatitis C virus, 72 h) came to 0.151 µM. The compound further displayed a CC50 in “in vitro” of over 25 µM.
With `C#C[C@@]1(O)[C@H](O)[C@@H](COP(=O)(N[C@@H](C)C(=O)OC2CCOCC2)Oc2ccccc2)O[C@H]1n1ccc(=O)[nH]c1=O` (single isomer, unassigned) [1.14 (peak 2)], the pEC50 in data set [1] is 6.34. This compound returned a CC50 in “in vitro” of over 25 µM.
Consider `C#C[C@@]1(O)[C@H](O)[C@@H](COP(=S)(N[C@@H](C)C(=O)OC(C)C)Oc2ccccc2)O[C@H]1n1ccc(=O)[nH]c1=O` (stereo partly drawn) [Example 1.19, (2S)-isopropyl 2-(((((2R,3R,4R,5R)-5-(2,4-dioxo-3,4-dihydropyrimidin-1(2H)-yl)-4-ethynyl-3,4-dihydroxytetrahydrofuran-2-yl)methoxy)(phenoxy)phosphorothioyl)amino)propanoate], for which the EC50 in data set [1] (Hepatitis C virus, 72 h) turned out to be 0.036 µM. In “in vitro”, the CC50 at 3 days is over 25000 nM.
Turning to `C#C[C@@]1(O)[C@H](O)[C@@H](COP(=O)(N[C@@H](C)C(=O)O[C@@H](C)CC)Oc2ccccc2)O[C@H]1n1ccc(=O)[nH]c1=O` (single isomer, unassigned) [1.13 (peak 2)], the pEC50 in data set [1] is 7.60. Further, the CC50 in the data set “in vitro” is over 25 µM.
Regarding `C#C[C@]1(O)[C@H](n2ccc(=O)[nH]c2=O)O[C@@](CO[P@@](=O)(N[C@@H](C)C(=O)OC(C)C)Oc2ccccc2)(N=[N+]=[N-])[C@H]1O` [Example 1.26, (2S)-isopropyl 2-(((((2R,3S,4R,5R)-2-azido-5-(2,4-dioxo-3,4-dihydropyrimidin-1(2H)-yl)-4-ethynyl-3,4-dihydroxytetrahydrofuran-2-yl)methoxy)(phenoxy)phosphoryl)amino)propanoate], the 50% effective concentration (EC50) in data set [1] (Hepatitis C virus, 72 h) is 1.44 µM. In the data set “in vitro”, the CC50 is over 25 µM.
With `C#C[C@@]1(O)[C@H](O)[C@@H](COP(=O)(N[C@@H](C)C(=O)OCC(C)(C)OC)Oc2ccccc2)O[C@H]1n1ccc(=O)[nH]c1=O` (single isomer, unassigned) [1.32 (peak 2)], in data set [1], the pEC50 is 6.74. In the data set “in vitro”, this compound yielded a CC50 of over 25 µM.
In the case of `C#C[C@@]1(O)[C@H](O)[C@@H](COP(=O)(N[C@@H](C)C(=O)OCC)Oc2ccccc2)O[C@H]1n1ccc(=O)[nH]c1=O` (single isomer, unassigned) [1.36 (peak 2)], the half-maximal effective concentration (EC50) in data set [1] (Hepatitis C virus, 72 h) was 0.096 µM. In “in vitro”, this compound showed a CC50 of over 25 µM.
In the case of `C#C[C@@]1(O)[C@H](O)[C@@H](COP(=O)(N[C@@H](C)C(=O)OCOC(C)=O)Oc2ccccc2)O[C@H]1n1ccc(=O)[nH]c1=O` (single isomer, unassigned) [1.17 (peak 2)], the concentration for a half-maximal effect (EC50) in data set [1] (Hepatitis C virus, 72 h) is 9.09 µM. The CC50 in the data set “in vitro” was over 25 µM.
`C#C[C@@]1(O)[C@H](O)[C@@H](COP(=O)(N[C@@H](CCC)C(=O)OC(C)C)Oc2ccccc2)O[C@H]1n1ccc(=O)[nH]c1=O` (single isomer, unassigned) [1.24 (peak 2)]: in data set [1], the pEC50 is 7.21. Besides, in the data set “in vitro”, the CC50 is over 25 µM.
Regarding `C#C[C@@]1(O)[C@H](O)[C@@H](COP(=O)(N[C@@H](C)C(=O)OC2CCCCC2)Oc2ccccc2)O[C@H]1n1ccc(=O)[nH]c1=O` (stereo partly drawn) [Example 1.12, (2S)-cyclohexyl 2-(((((2R,3R,4R,5R)-5-(2,4-dioxo-3,4-dihydropyrimidin-1(2H)-yl)-4-ethynyl-3,4-dihydroxytetrahydrofuran-2-yl)methoxy)(phenoxy)phosphoryl)amino)propanoate], the concentration for a half-maximal effect (EC50) in data set [1] (Hepatitis C virus, 72 h) came to 0.013 µM. The CC50 in the data set “in vitro” was over 25 µM.
On to `C#C[C@@]1(O)[C@H](O)[C@@H](COP(=O)(N[C@@H](C)C(=O)OC(C)C)Oc2ccccc2)O[C@H]1n1ccc(=O)[nH]c1=O` (single isomer, unassigned) [1.25 (peak 1)], for which the concentration for a half-maximal effect (EC50) in data set [1] (Hepatitis C virus, 72 h) stood at 0.358 µM. The compound further showed a CC50 in “in vitro” of over 25 µM.
On to `C#C[C@@]1(O)[C@H](O)[C@@H](COP(=O)(NCCOC(=O)c2ccccc2)Oc2ccccc2)O[C@H]1n1ccc(=O)[nH]c1=O` (single isomer, unassigned) [1.18 (peak 2)], for which, in data set [1] (Hepatitis C virus, 72 h), the half-maximal effective concentration (EC50) was 0.089 µM. This compound also displayed a CC50 in “in vitro” of over 25 µM.
In the case of `C#C[C@@]12OC(=O)O[C@@H]1[C@@H](COP(=O)(N[C@@H](C)C(=O)OC(C)C)Oc1ccccc1)O[C@H]2n1ccc(=O)[nH]c1=O` (stereo partly drawn) [Example 1.22, (2S)-isopropyl 2-(((((3aR,4R,6R,6aR)-6-(2,4-dioxo-3,4-dihydropyrimidin-1(2H)-yl)-6a-ethynyl-2-oxotetrahydrofuro[3,4-d][1,3]dioxol-4-yl)methoxy)(phenoxy)phosphoryl)amino)propanoate], the EC50 in data set [1] (Hepatitis C virus, 72 h) amounted to 0.108 µM. This compound also showed a CC50 in the data set “in vitro” of over 25 µM.
With `C#C[C@@]1(O)[C@H](O)[C@@H](COP(=O)(O)N[C@@H](C)C(=O)O)O[C@H]1n1ccc(=O)[nH]c1=O` [Example 1.40, (2S)-2-(((((2R,3R,4R,5R)-5-(2,4-dioxo-3,4-dihydropyrimidin-1(2H)-yl)-4-ethynyl-3,4-dihydroxytetrahydrofuran-2-yl)methoxy)(hydroxy)phosphoryl)amino)propanoic acid], in data set [1] (Hepatitis C virus, 72 h, GT1b replicon cells, 3 days, luciferase), the pEC50 is 6.83. Moreover, the CC50 in the data set “in vitro” was over 25 µM.
As for `C#C[C@@]1(O)[C@H](O)[C@@H](COP(=O)(N[C@@H](C)C(=O)OC)Oc2ccccc2)O[C@H]1n1ccc(=O)[nH]c1=O` (single isomer, unassigned) [1.35 (peak 2)], in data set [1] (Hepatitis C virus, 72 h), the concentration giving a half-maximal response (EC50) was found to be 0.194 µM. In addition, in “in vitro”, the CC50 is over 25 µM.
In the case of `C#C[C@@]1(O)[C@H](O)[C@@H](COP(=O)(N[C@@H](C)C(=O)OC(C)C)Oc2ccccc2)O[C@H]1n1ccc(N)nc1=O` (single isomer, unassigned) [1.30 (peak 2)], the EC50 in data set [1] (Hepatitis C virus, 72 h) was determined as 54.3 µM. The compound also came in with a CC50 in the data set “in vitro” of over 25 µM.
On to `C#C[C@@]1(O)[C@H](O)[C@@H](COP(=O)(N[C@@H](Cc2ccccc2)C(=O)OC(C)C)Oc2ccccc2)O[C@H]1n1ccc(=O)[nH]c1=O` (single isomer, unassigned) [1.10 (peak 2)], for which the pEC50 in data set [1] was 7.64. Besides, the CC50 in “in vitro” is over 25 µM.
In the case of `C#C[C@@]1(O)[C@H](O)[C@@H](COP(=O)(NC(C)(C)C(=O)OCC)Oc2ccccc2)O[C@H]1n1ccc(=O)[nH]c1=O` (single isomer, unassigned) [1.37 (peak 2)], the EC50 in data set [1] (Hepatitis C virus, 72 h) worked out at 0.478 µM. In addition, the CC50 in “in vitro” was over 25 µM.
As for `C#C[C@@]1(O)[C@H](O)[C@@H](COP(=O)(N[C@@H](C)C(=O)OC(CC)CC)Oc2ccccc2)O[C@H]1n1ccc(=O)[nH]c1=O` (single isomer, unassigned) [1.16 (peak 2)], the pEC50 in data set [1] is 7.25. Also, the CC50 in “in vitro” was over 25 µM.
Consider `C#C[C@@]1(O)[C@H](O)[C@@H](COP(=O)(N[C@@H](C)C(=O)OCC(C)(C)C)Oc2ccccc2)O[C@H]1n1ccc(=O)[nH]c1=O` (single isomer, unassigned) [1.33 (peak 2)], for which the pEC50 in data set [1] is 6.00. This compound also displayed a CC50 in “in vitro” of over 25 µM.
Consider `C#C[C@@]1(O)[C@H](O)[C@@H](COP(=O)(N[C@@H](CC(C)C)C(=O)OC(C)C)Oc2ccccc2)O[C@H]1n1ccc(=O)[nH]c1=O` (single isomer, unassigned) [1.23 (peak 2)], for which the pEC50 in data set [1] is 6.52. The compound also had a CC50 in the data set “in vitro” of over 25 µM.
Regarding `C#C[C@@]1(O)[C@H](O)[C@@H](COP(=O)(N[C@@H](C)C(=O)O[C@H](C)CC)Oc2ccccc2)O[C@H]1n1ccc(=O)[nH]c1=O` (single isomer, unassigned) [1.15 (peak 2)], the pEC50 in data set [1] was 7.54. In addition, in “in vitro”, the CC50 is over 25 µM.
Consider `C#C[C@@]1(O)[C@H](O)[C@@H](COP(=O)(N[C@@H](CC)C(=O)OC(C)C)Oc2ccccc2)O[C@H]1n1ccc(=O)[nH]c1=O` (single isomer, unassigned) [1.38 (peak 2)], for which, in data set [1] (Hepatitis C virus, 72 h), the concentration for a half-maximal effect (EC50) was determined as 0.54 µM. The same compound came in with a CC50 in the data set “in vitro” of over 25 µM.
Take `C#C[C@@]1(O)[C@H](O)[C@@H](COP(=O)(N[C@@H](C)C(=O)OC2CCC2)Oc2ccccc2)O[C@H]1n1ccc(=O)[nH]c1=O` (single isomer, unassigned) [1.11 (peak 2)]: in data set [1] (Hepatitis C virus, 72 h), the EC50 stood at 0.058 µM. The CC50 in the data set “in vitro” is over 25 µM.
Regarding `C#C[C@@]1(O)[C@H](O)[C@@H](COP(=O)(NC(C)(C)C(=O)OC(C)C)Oc2ccccc2)O[C@H]1n1ccc(=O)[nH]c1=O` (single isomer, unassigned) [1.39 (peak 2)], in data set [1], the negative logarithm of the EC50 (pEC50) was 7.33. For the same compound, the CC50 in the data set “in vitro” is over 25 µM.
For `C#C[C@@]1(O)[C@H](O)[C@@H](COP(=O)(N[C@@H](C)C(=O)OC2CCCC2)Oc2ccccc2)O[C@H]1n1ccc(=O)[nH]c1=O` (single isomer, unassigned) [1.31 (peak 2)], in that order: 8.22 and over 25 µM.
